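48-hour exposure; five concentrations; linearly interpolated endpoints. GI50 is the concentration that inhibits growth by half.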 Calls of active or inactive are those of the source. Rule as the data show it: active = GI50 up to about 1.1 µM and inactive = higher.
Key:
Assay in all cases: DTP human tumour cell line panel, 48 h
A549 = test system: A549
ACHN = test system: ACHN
EKVX = test system: EKVX
HCT-15 = test system: HCT-15
HL-60 = test system: HL-60
Hs-578T = test system: Hs-578T
KM12 = test system: KM12
MDA-MB-435 = test system: MDA-MB-435
NCI-H23 = test system: NCI-H23
NCI-H460 = test system: NCI-H460
NCI-H522 = test system: NCI-H522
OVCAR-3 = test system: OVCAR-3
SF-295 = test system: SF-295
SF-539 = test system: SF-539
SK-MEL-28 = test system: SK-MEL-28
SK-MEL-5 = test system: SK-MEL-5
SNB-75 = test system: SNB-75
SW-620 = test system: SW-620
U-251 = test system: U-251
UACC-257 = test system: UACC-257

SMILES | GI50 (A549) | GI50 (ACHN) | GI50 (EKVX) | GI50 (HCT-15) | GI50 (HL-60) | GI50 (Hs-578T) | GI50 (KM12) | GI50 (MDA-MB-435) | GI50 (NCI-H23) | GI50 (NCI-H460) | GI50 (NCI-H522) | GI50 (OVCAR-3) | GI50 (SF-295) | GI50 (SF-539) | GI50 (SK-MEL-28) | GI50 (SK-MEL-5) | GI50 (SNB-75) | GI50 (SW-620) | GI50 (U-251) | GI50 (UACC-257)
Oc1cc2c(cc1C(c1ccc3c(c1)OCO3)N1CCN(C(c3ccc4c(c3)OCO4)c3cc4c(cc3O)OCO4)CC1)OCO2 (stereo not given) | 34 µM (inactive) | 13.7 µM (inactive) | 35.2 µM (inactive) | 7.98 µM | 32.5 µM (inactive) | 11.9 µM (inactive) | 16.7 µM (inactive) | 17.7 µM (inactive) | 16.9 µM (inactive) | 38.6 µM (inactive) | 14.2 µM (inactive) | 17.1 µM (inactive) | 16.7 µM (inactive) | 16.7 µM (inactive) | 2.83 µM (inactive) | 18.6 µM (inactive) | 3.46 µM (inactive) | 12.7 µM (inactive) | 15.4 µM (inactive) | 17.6 µM (inactive)
CCCCC1C(=O)N(c2ccc(S(=O)(=O)Nc3ccccn3)cc2)N(c2ccc(O)c(C(=O)O)c2)C1=O (stereo not given) | > 100 µM (inactive) | > 100 µM (inactive) | > 100 µM (inactive) | > 100 µM | > 100 µM (inactive) | > 100 µM (inactive) | > 100 µM (inactive) | > 100 µM (inactive) | > 100 µM (inactive) | > 100 µM (inactive) | > 100 µM (inactive) | > 100 µM (inactive) | > 100 µM (inactive) | > 100 µM (inactive) | > 100 µM (inactive) | > 100 µM (inactive) | > 100 µM (inactive) | > 100 µM (inactive) | > 100 µM (inactive) | > 100 µM (inactive)
Cc1nc(O)nc(N(CCO)/N=C/c2ccc(Cl)cc2)c1C(=O)Nc1ccc(Cl)cc1 | > 100 µM (inactive) | > 100 µM (inactive) | > 100 µM (inactive) | > 100 µM | > 100 µM (inactive) | 32.5 µM (inactive) | > 100 µM (inactive) | > 100 µM (inactive) | > 100 µM (inactive) | > 100 µM (inactive) | > 100 µM (inactive) | > 100 µM (inactive) | > 100 µM (inactive) | > 100 µM (inactive) | > 100 µM (inactive) | > 100 µM (inactive) | 55.2 µM (inactive) | > 100 µM (inactive) | 21.3 µM (inactive) | > 100 µM (inactive)
O=c1[nH]/c(=C/c2ccc(OCc3ccccc3)cn2)c(=O)[nH]/c1=C/c1ccc([N+](=O)[O-])cc1 | > 100 µM (inactive) | > 94.6 µM (inactive) | > 100 µM (inactive) | > 100 µM | > 100 µM (inactive) | 35.8 µM (inactive) | > 100 µM (inactive) | > 100 µM (inactive) | > 100 µM (inactive) | > 100 µM (inactive) | > 100 µM (inactive) | > 100 µM (inactive) | 49.1 µM (inactive) | > 61.4 µM (inactive) | > 100 µM (inactive) | > 100 µM (inactive) | 27.1 µM (inactive) | > 100 µM (inactive) | > 65.3 µM (inactive) | > 100 µM (inactive)
COc1cc2c(cc1O)[C@@H]1Cc3c(cc(OC)c(OC)c3Oc3cc4c(cc3OC)CCN(C)[C@@H]4Cc3ccc(O)cc3)[C@H](C2)N1C | > 100 µM (inactive) | > 83.2 µM (inactive) | > 100 µM (inactive) | > 78.9 µM | 17.7 µM (inactive) | 46 µM (inactive) | 45.1 µM (inactive) | 20.6 µM (inactive) | > 100 µM (inactive) | 53.7 µM (inactive) | 27.7 µM (inactive) | > 100 µM (inactive) | 46 µM (inactive) | 23.5 µM (inactive) | 18.6 µM (inactive) | 15.8 µM (inactive) | 20.6 µM (inactive) | 36.6 µM (inactive) | 46.5 µM (inactive) | 23.2 µM (inactive)
COC(=O)C(Cc1c[nH]c2ccccc12)NP(=O)(O)OCC1OC(n2cc(I)c(=O)[nH]c2=O)CC1O (stereo not given) | > 100 µM (inactive) | > 100 µM (inactive) | > 100 µM (inactive) | > 100 µM | > 100 µM (inactive) | > 100 µM (inactive) | > 100 µM (inactive) | > 100 µM (inactive) | > 100 µM (inactive) | > 100 µM (inactive) | > 100 µM (inactive) | > 100 µM (inactive) | > 100 µM (inactive) | > 100 µM (inactive) | > 100 µM (inactive) | > 100 µM (inactive) | > 100 µM (inactive) | > 100 µM (inactive) | > 100 µM (inactive) | > 100 µM (inactive)
CN1C(=O)N(C)C(O)C(Cl)(Br)C1=O (stereo not given) | > 100 µM (inactive) | > 100 µM (inactive) | > 100 µM (inactive) | > 100 µM | > 100 µM (inactive) | > 100 µM (inactive) | > 100 µM (inactive) | > 100 µM (inactive) | > 100 µM (inactive) | > 100 µM (inactive) | > 100 µM (inactive) | > 100 µM (inactive) | > 100 µM (inactive) | > 100 µM (inactive) | > 100 µM (inactive) | > 100 µM (inactive) | > 100 µM (inactive) | > 100 µM (inactive) | > 100 µM (inactive) | > 100 µM (inactive)
O=C1CCCC2=C1CC1=C(CCCC1=O)N2c1ccc(-c2ccccc2)cc1 | > 100 µM (inactive) | > 100 µM (inactive) | > 100 µM (inactive) | > 100 µM | > 29.6 µM (inactive) | 43.2 µM (inactive) | > 100 µM (inactive) | > 100 µM (inactive) | > 100 µM (inactive) | > 100 µM (inactive) | > 100 µM (inactive) | > 100 µM (inactive) | > 100 µM (inactive) | > 72.6 µM (inactive) | > 100 µM (inactive) | > 100 µM (inactive) | > 47.4 µM (inactive) | > 100 µM (inactive) | > 75 µM (inactive) | > 100 µM (inactive)
CN(C)CC1CCC/C(=C\c2ccc(N(C)C)cc2)C1=O (stereo not given) | 17.9 µM (inactive) | 19.8 µM (inactive) | 16.7 µM (inactive) | 4.86 µM | > 100 µM (inactive) | 3.58 µM (inactive) | 1.44 µM (inactive) | 5.4 µM (inactive) | 15.1 µM (inactive) | 12 µM (inactive) | 1.75 µM (inactive) | 2.84 µM (inactive) | 18.2 µM (inactive) | 15.3 µM (inactive) | 5.64 µM (inactive) | 17.6 µM (inactive) | 17 µM (inactive) | 1.85 µM (inactive) | 17 µM (inactive) | 13.5 µM (inactive)
Nc1nc(O)c([I+]c2ccccc2)c(=O)[nH]1 | > 100 µM (inactive) | > 100 µM (inactive) | > 100 µM (inactive) | > 100 µM | > 100 µM (inactive) | > 100 µM (inactive) | > 100 µM (inactive) | > 100 µM (inactive) | > 100 µM (inactive) | > 100 µM (inactive) | > 100 µM (inactive) | > 100 µM (inactive) | > 100 µM (inactive) | > 100 µM (inactive) | > 100 µM (inactive) | > 100 µM (inactive) | > 100 µM (inactive) | > 100 µM (inactive) | > 100 µM (inactive) | > 100 µM (inactive)
C#CCOCC12C=CC(O1)C1COC(=O)C12 (stereo not given) | > 100 µM (inactive) | > 100 µM (inactive) | > 100 µM (inactive) | > 100 µM | > 100 µM (inactive) | > 100 µM (inactive) | > 100 µM (inactive) | > 100 µM (inactive) | > 100 µM (inactive) | > 100 µM (inactive) | > 100 µM (inactive) | > 100 µM (inactive) | > 100 µM (inactive) | > 100 µM (inactive) | > 100 µM (inactive) | > 100 µM (inactive) | > 100 µM (inactive) | > 100 µM (inactive) | > 100 µM (inactive) | > 100 µM (inactive)
CN(c1ccccc1Cl)S(=O)(=O)c1ccccc1[N+](=O)[O-] | 37.2 µM (inactive) | > 10 µM (inactive) | 39.2 µM (inactive) | 48.9 µM | 24 µM (inactive) | > 100 µM (inactive) | 38.9 µM (inactive) | 28.7 µM (inactive) | 35.2 µM (inactive) | 33.9 µM (inactive) | 32.7 µM (inactive) | 37.8 µM (inactive) | 71.4 µM (inactive) | 35.9 µM (inactive) | 39.6 µM (inactive) | 15.3 µM (inactive) | 40.6 µM (inactive) | 78.9 µM (inactive) | 40.6 µM (inactive) | 45.1 µM (inactive)
COc1ccc(/C=N/c2nc3cc4sc(/N=C/c5ccc(OC)cc5)nc4cc3s2)cc1 | 8 µM (inactive) | 43.7 µM (inactive) | 21.2 µM (inactive) | 19.5 µM | 18.4 µM (inactive) | > 32.7 µM (inactive) | 34.1 µM (inactive) | 29.7 µM (inactive) | 15.9 µM (inactive) | 5 µM (inactive) | 10.4 µM (inactive) | 23.6 µM (inactive) | 43.6 µM (inactive) | > 100 µM (inactive) | > 86.1 µM (inactive) | 13.6 µM (inactive) | > 100 µM (inactive) | 12.8 µM (inactive) | 54.3 µM (inactive) | 70.6 µM (inactive)
CCOC(=O)c1csc(-c2cn(C)c3c2C(=O)C(OC)=CC3=O)n1 | 17.8 µM (inactive) | 34.8 µM (inactive) | > 86.3 µM (inactive) | 9.75 µM | 13 µM (inactive) | 21.2 µM (inactive) | 20 µM (inactive) | 3.27 µM (inactive) | 11.3 µM (inactive) | 8.73 µM (inactive) | 36.6 µM (inactive) | 5.82 µM (inactive) | 25 µM (inactive) | 27.6 µM (inactive) | 32.6 µM (inactive) | 3.91 µM (inactive) | 30.3 µM (inactive) | 55.2 µM (inactive) | 15.4 µM (inactive) | 21.6 µM (inactive)

Reference: ChEMBL document CHEMBL1201862, “PubChem BioAssay data set” (2004)
